Laboratory results taken from PMC11289455 (Scientific Reports, 2024).
Where two headings read alike, the source gives them in different places.

Legend:
[1] = target: T1, β2 (beta-2 adrenergic receptor) (Homo sapiens, UniProt P07550); assay: SafetyScreen44: β2; format: binding
T1 construct: purchased Eurofins Cerep SafetyScreen44

[2] = target: T2, D2S (short dopamine D2 receptor) (Homo sapiens, UniProt P14416); assay: SafetyScreen44: D2S; format: binding
T2 construct: purchased Eurofins Cerep SafetyScreen44

[3] = target: T3, COX1 (Homo sapiens, UniProt P23219); assay: SafetyScreen44: COX1; format: biochemical
T3 construct: purchased Eurofins Cerep SafetyScreen44

[4] = target: T4, M3 (muscarinic acetylcholine receptor M3) (Homo sapiens, UniProt P20309); assay: SafetyScreen44: M3; format: binding
T4 construct: purchased Eurofins Cerep SafetyScreen44

[5] = target: T5, Lck kinase (lymphocyte-specific protein tyrosine kinase) (Homo sapiens, UniProt P06239); assay: SafetyScreen44: Lck kinase; format: biochemical
T5 construct: purchased Eurofins Cerep SafetyScreen44

[6] = target: T6, 5-HT3 (serotonin 3 receptor) (Homo sapiens, UniProt P46098); assay: SafetyScreen44: 5-HT3; format: binding
T6 construct: purchased Eurofins Cerep SafetyScreen44
T6 sequence (P46098 24-478): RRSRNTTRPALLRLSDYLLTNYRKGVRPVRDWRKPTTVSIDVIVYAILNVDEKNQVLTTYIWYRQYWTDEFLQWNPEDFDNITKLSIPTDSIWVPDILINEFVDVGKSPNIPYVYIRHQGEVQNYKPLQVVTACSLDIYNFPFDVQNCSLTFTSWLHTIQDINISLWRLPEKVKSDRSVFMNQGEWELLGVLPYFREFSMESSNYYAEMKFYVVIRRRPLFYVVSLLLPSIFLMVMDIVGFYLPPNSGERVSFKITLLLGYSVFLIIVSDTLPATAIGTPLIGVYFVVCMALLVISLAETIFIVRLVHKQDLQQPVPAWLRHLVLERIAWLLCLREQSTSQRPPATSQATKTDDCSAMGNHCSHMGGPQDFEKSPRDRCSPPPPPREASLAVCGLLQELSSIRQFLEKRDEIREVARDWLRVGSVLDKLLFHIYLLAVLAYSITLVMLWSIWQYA

[7] = target: T7, MAO-A (monoamine oxidase A) (Rattus norvegicus, UniProt P21396); assay: SafetyScreen44: MAO-A; format: binding
T7 construct: purchased Eurofins Cerep SafetyScreen44
T7 sequence (P21396 1-526): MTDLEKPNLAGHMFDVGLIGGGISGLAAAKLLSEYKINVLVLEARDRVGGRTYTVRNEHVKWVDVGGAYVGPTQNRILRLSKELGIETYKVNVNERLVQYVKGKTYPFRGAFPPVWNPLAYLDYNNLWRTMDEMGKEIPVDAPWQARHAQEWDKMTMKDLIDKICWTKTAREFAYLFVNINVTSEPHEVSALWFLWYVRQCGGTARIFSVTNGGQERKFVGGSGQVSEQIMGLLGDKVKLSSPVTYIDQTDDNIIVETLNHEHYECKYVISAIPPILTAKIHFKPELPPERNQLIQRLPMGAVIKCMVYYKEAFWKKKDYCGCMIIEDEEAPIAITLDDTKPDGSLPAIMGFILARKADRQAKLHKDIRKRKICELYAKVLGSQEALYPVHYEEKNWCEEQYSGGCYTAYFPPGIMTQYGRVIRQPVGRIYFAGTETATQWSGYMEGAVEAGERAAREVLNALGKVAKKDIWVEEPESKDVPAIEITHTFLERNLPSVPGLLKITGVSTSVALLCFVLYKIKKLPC

[8] = target: T8, M1 (muscarinic acetylcholine receptor M1) (Homo sapiens, UniProt P11229); assay: SafetyScreen44: M1; format: binding
T8 construct: purchased Eurofins Cerep SafetyScreen44
T8 sequence (P11229 1-460): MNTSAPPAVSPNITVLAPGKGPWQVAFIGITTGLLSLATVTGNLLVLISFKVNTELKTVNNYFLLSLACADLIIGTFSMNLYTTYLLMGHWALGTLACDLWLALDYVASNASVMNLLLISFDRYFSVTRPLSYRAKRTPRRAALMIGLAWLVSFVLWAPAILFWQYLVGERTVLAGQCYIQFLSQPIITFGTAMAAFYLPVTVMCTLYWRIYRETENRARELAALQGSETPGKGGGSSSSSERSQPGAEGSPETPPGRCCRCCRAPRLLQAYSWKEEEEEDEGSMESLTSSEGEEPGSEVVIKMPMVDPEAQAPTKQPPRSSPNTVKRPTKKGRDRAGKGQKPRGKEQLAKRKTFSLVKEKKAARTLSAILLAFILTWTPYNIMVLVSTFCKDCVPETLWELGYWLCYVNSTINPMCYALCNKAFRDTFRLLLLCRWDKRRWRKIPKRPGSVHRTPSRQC

[9] = target: T9, δ (DOP) (delta opioid receptor) (Homo sapiens, UniProt P41143); assay: SafetyScreen44: δ (DOP); format: binding
T9 construct: purchased Eurofins Cerep SafetyScreen44

[10] = target: T10, H1 (histamine H1 receptor) (Homo sapiens, UniProt P35367); assay: SafetyScreen44: H1; format: binding
T10 construct: purchased Eurofins Cerep SafetyScreen44

[11] = target: T11, 5-HT transporter (Homo sapiens, UniProt P31645); assay: SafetyScreen44: 5-HT transporter; format: binding
T11 construct: purchased Eurofins Cerep SafetyScreen44

[12] = Plasma concentration in rat pharmacokinetic-pharmacodynamic model; format: in vivo

T1 sequence (P07550 whole entry): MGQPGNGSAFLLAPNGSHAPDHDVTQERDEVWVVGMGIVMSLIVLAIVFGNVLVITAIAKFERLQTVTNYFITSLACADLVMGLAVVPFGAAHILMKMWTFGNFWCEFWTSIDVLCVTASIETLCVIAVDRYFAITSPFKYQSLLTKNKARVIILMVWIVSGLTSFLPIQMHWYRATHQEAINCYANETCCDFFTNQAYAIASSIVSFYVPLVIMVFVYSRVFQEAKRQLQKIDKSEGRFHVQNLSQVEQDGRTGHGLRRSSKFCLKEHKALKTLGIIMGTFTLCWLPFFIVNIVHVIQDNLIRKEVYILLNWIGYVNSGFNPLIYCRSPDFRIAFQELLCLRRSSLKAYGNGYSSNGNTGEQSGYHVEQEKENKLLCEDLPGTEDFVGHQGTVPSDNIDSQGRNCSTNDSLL
T11 sequence (P31645 whole entry): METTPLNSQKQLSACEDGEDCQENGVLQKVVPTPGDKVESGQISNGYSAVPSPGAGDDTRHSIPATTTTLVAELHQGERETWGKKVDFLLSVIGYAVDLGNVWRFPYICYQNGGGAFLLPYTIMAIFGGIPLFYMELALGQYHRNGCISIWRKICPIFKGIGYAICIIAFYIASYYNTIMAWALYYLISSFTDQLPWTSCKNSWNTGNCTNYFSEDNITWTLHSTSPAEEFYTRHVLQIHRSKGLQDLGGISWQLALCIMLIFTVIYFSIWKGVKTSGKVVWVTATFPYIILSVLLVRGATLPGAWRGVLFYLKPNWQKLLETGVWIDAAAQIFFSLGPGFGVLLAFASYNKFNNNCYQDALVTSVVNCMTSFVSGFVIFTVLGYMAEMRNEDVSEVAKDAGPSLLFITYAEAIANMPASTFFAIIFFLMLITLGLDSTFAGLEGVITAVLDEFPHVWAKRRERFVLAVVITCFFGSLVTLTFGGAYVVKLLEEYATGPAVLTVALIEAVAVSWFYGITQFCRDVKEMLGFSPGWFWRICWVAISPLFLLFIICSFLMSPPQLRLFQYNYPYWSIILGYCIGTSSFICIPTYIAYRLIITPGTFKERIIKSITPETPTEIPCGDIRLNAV
T3 sequence (P23219 24-599): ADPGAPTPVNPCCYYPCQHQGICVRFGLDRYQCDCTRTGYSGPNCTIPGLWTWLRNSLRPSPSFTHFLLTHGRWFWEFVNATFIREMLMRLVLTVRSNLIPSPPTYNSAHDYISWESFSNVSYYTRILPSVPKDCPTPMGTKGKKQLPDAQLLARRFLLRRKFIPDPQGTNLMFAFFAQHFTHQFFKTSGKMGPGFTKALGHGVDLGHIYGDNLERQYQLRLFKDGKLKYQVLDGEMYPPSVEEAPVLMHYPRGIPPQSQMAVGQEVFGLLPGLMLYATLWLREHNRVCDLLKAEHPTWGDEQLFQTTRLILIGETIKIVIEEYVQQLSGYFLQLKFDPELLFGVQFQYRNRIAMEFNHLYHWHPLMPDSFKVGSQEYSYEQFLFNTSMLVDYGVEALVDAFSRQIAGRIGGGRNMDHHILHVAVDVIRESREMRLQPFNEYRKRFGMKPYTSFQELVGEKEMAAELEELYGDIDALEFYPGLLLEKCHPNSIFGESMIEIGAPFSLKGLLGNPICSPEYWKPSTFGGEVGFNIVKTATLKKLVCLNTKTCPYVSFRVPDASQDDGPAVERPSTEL
T10 sequence (P35367 whole entry): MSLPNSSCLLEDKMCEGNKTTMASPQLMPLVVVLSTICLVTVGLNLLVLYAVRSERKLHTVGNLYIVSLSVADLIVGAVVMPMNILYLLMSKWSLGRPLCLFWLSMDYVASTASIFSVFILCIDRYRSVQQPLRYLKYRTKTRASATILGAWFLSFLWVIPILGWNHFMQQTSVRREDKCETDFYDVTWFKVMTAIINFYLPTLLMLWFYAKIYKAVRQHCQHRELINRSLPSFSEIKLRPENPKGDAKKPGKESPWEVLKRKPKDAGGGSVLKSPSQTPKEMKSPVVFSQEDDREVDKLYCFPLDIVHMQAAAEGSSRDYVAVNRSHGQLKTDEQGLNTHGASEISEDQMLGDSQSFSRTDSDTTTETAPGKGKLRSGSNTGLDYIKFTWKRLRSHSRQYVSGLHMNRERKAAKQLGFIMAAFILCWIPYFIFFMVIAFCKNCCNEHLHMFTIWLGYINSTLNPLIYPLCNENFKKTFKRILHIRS
T5 sequence (P06239 whole entry): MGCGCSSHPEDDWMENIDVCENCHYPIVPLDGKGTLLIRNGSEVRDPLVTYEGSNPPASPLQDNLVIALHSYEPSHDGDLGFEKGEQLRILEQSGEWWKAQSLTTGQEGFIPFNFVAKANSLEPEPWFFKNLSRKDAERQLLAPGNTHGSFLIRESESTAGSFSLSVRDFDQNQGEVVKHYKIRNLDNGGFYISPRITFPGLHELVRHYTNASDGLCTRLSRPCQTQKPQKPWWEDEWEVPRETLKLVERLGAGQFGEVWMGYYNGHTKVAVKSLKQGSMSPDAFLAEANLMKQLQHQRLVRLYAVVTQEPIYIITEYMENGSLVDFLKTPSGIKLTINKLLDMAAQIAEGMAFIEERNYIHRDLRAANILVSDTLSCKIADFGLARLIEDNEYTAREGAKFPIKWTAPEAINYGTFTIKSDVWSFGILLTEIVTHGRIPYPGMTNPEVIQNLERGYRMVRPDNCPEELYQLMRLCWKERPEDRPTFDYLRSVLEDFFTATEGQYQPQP
T4 sequence (P20309 whole entry): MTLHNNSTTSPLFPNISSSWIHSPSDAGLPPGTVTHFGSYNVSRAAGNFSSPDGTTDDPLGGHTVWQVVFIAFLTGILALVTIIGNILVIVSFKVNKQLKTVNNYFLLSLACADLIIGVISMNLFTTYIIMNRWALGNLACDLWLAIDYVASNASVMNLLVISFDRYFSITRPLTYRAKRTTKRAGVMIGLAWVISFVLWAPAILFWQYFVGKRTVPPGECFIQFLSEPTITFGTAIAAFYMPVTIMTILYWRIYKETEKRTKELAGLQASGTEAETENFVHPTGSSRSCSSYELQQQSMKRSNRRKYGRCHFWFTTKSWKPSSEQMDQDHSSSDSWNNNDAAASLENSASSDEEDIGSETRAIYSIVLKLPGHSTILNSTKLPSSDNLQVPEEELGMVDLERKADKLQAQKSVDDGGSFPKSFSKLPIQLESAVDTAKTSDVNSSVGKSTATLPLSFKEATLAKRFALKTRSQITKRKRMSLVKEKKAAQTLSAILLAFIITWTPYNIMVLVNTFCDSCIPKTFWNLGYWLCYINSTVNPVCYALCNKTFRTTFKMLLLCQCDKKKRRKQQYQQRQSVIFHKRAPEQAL
T2 sequence (P14416 1-414 isoform P14416-2): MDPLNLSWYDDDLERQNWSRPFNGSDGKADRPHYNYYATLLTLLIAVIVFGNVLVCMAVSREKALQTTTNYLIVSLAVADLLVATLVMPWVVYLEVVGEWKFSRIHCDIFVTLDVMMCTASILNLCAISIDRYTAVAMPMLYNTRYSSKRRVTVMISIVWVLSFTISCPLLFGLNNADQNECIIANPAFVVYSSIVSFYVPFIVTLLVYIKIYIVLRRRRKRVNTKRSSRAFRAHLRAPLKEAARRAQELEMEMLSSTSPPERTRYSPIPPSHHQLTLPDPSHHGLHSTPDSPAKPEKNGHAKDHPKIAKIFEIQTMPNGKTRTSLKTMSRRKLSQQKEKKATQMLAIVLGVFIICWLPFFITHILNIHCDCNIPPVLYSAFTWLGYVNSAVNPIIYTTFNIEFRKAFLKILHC
T9 sequence (P41143 whole entry): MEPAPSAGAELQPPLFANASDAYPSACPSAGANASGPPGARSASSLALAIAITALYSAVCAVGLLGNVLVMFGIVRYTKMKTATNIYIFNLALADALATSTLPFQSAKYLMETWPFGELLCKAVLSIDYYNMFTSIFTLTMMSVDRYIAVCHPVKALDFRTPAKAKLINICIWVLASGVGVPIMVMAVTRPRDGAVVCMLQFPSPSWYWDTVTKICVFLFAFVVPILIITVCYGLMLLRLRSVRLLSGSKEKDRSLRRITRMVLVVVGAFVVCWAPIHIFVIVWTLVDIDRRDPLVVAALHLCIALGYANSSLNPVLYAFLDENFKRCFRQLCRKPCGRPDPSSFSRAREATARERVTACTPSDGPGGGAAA

SMILES: CC(=O)NCCCC[C@@H]1NC(=O)[C@H](Cc2c[nH]c3c(C)cccc23)NC(=O)[C@H]([C@@H](C)O)NC(=O)[C@H](CC(N)=O)NC(=O)[C@@H](NC(C)=O)C(C)(C)SSC(C)(C)[C@@H](C(=O)N[C@@H](Cc2ccc(OCCN)cc2)C(=O)N[C@@H](Cc2ccc3ccccc3c2)C(=O)NC2(C(=O)N[C@@H](CCC(=O)O)C(=O)N[C@@H](CC(N)=O)C(=O)N[C@@H](Cc3cccnc3)C(=O)N(C)CC(N)=O)CCOCC2)NC1=O [JNJ-77242113, S^3,1,S^3,6-cyclo[N-acetyl-3-sulfanyl-L-valyl-L-asparaginyl-L-threonyl-7-methyl-L-tryptophyl-N^6-acetyl-L-lysyl-3-sulfanyl-L-valyl-O-(2-aminoethyl)-L-tyrosyl-3-(naphthalen-2-yl)-L-alanyl-4-aminooxan-4-carbonyl-L-α-glutamyl-L-asparaginyl-3-(pyridin-3-yl)-L-alanyl-N^2-methylglycinamide]]
- inhibition at 10 µM ([1]; 1st run, read-out: Percent inhibition of control ligand binding, β2, 1st run): -8.2%
- inhibition at 10 µM ([1]; 2nd run, read-out: Percent inhibition of control ligand binding, β2, 2nd run): -0.6%
- inhibition at 10 µM ([1]; mean of 2 runs, read-out: Percent inhibition of control ligand binding, β2, Mean): -4.4%
- inhibition at 10 µM ([2]; 1st run, read-out: Percent inhibition of control ligand binding, D2S, 1st run): -6.6%
- inhibition at 10 µM ([2]; 2nd run, read-out: Percent inhibition of control ligand binding, D2S, 2nd run): -6.6%
- inhibition at 10 µM ([2]; mean of 2 runs, read-out: Percent inhibition of control ligand binding, D2S, Mean): -6.6%
- inhibition at 10 µM ([3]; 1st run, read-out: Percent inhibition of control ligand binding, COX1, 1st run): -18.8%
- inhibition at 10 µM ([3]; 2nd run, read-out: Percent inhibition of control ligand binding, COX1, 2nd run): -37.6%
- inhibition at 10 µM ([3]; mean of 2 runs, read-out: Percent inhibition of control ligand binding, COX1, Mean): -28.2%
- inhibition at 10 µM ([4]; 1st run, read-out: Percent inhibition of control ligand binding, M3, 1st run): -10.5%
- inhibition at 10 µM ([4]; 2nd run, read-out: Percent inhibition of control ligand binding, M3, 2nd run): -5.2%
- inhibition at 10 µM ([4]; mean of 2 runs, read-out: Percent inhibition of control ligand binding, M3, Mean): -7.8%
- inhibition at 10 µM ([5]; 1st run, read-out: Percent inhibition of control ligand binding, Lck kinase, 1st run): 8.6%
- inhibition at 10 µM ([5]; 2nd run, read-out: Percent inhibition of control ligand binding, Lck kinase, 2nd run): -2.3%
- inhibition at 10 µM ([5]; mean of 2 runs, read-out: Percent inhibition of control ligand binding, Lck kinase, Mean): 3.1%
- inhibition at 10 µM ([6]; 1st run, read-out: Percent inhibition of control ligand binding, 5-HT3, 1st run): 0.7%
- inhibition at 10 µM ([6]; 2nd run, read-out: Percent inhibition of control ligand binding, 5-HT3, 2nd run): 3.4%
- inhibition at 10 µM ([6]; mean of 2 runs, read-out: Percent inhibition of control ligand binding, 5-HT3, Mean): 2.1%
- inhibition at 10 µM ([7]; 1st run, read-out: Percent inhibition of control ligand binding, MAO-A, 1st run): 12%
- inhibition at 10 µM ([7]; 2nd run, read-out: Percent inhibition of control ligand binding, MAO-A, 2nd run): 10.3%
- inhibition at 10 µM ([7]; mean of 2 runs, read-out: Percent inhibition of control ligand binding, MAO-A, Mean): 11.2%
- inhibition at 10 µM ([8]; 1st run, read-out: Percent inhibition of control ligand binding, M1, 1st run): -4.1%
- inhibition at 10 µM ([8]; 2nd run, read-out: Percent inhibition of control ligand binding, M1, 2nd run): 3.3%
- inhibition at 10 µM ([8]; mean of 2 runs, read-out: Percent inhibition of control ligand binding, M1, Mean): -0.4%
- inhibition at 10 µM ([9]; 1st run, read-out: Percent inhibition of control ligand binding, δ (DOP), 1st run): -7.8%
- inhibition at 10 µM ([9]; 2nd run, read-out: Percent inhibition of control ligand binding, δ (DOP), 2nd run): 0.4%
- inhibition at 10 µM ([9]; mean of 2 runs, read-out: Percent inhibition of control ligand binding, δ (DOP), Mean): -3.7%
- inhibition at 10 µM ([10]; 1st run, read-out: Percent inhibition of control ligand binding, H1, 1st run): -8.4%
- inhibition at 10 µM ([10]; 2nd run, read-out: Percent inhibition of control ligand binding, H1, 2nd run): -9.8%
- inhibition at 10 µM ([10]; mean of 2 runs, read-out: Percent inhibition of control ligand binding, H1, Mean): -9.1%
- inhibition at 10 µM ([11]; 1st run, read-out: Percent inhibition of control ligand binding, 5-HT transporter, 1st run): -19.9%
- inhibition at 10 µM ([11]; 2nd run, read-out: Percent inhibition of control ligand binding, 5-HT transporter, 2nd run): 1.4%
- inhibition at 10 µM ([11]; mean of 2 runs, read-out: Percent inhibition of control ligand binding, 5-HT transporter, Mean): -9.2%
- Mean dilution-adjusted exposure at 2 h (Tmax) ([12]; 10 mg/kg oral, plasma LC–MS/MS, dilution adjusted): 660 pM
- Exposures (in words) ([12]; in vivo oral doses less than 10 mg/kg): below the limit of quantification
